In ChEMBL document CHEMBL1201862, “PubChem BioAssay data set” (2004):
Active and inactive are the calls of the source.

Key:
[1] = HepG2 cell cytotoxicity, dose response, cytotoxicity control, cherry-picked samples (AID 1159577); format: functional, cell-based
[2] = P. falciparum Dd2 growth inhibitors, dose response, SYBR Green, cherry-picked samples (AID 1159567); format: functional, cell-based
[3] = HepG2 cell cytotoxicity, dose response, cytotoxicity control, plate reader, cherry-pick, antagonist series (AID 743416); format: functional, cell-based
[4] = A549 cell cytotoxicity, dose response, cytotoxicity control, plate reader, cherry-pick, antagonist series (AID 743412); format: functional, cell-based
[5] = LGR2 antagonists, dose response, cell-based, HEK293, CRE-luciferase reporter, cherry pick, set 2 (AID 743343); format: functional;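 further: transfected cells were stimulated with diluted bursicon conditioned medium after compound addition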
[6] = HEK293 cell cytotoxicity, dose response, cytotoxicity control, plate reader, cherry-picked samples (AID 743446); format: functional, cell-based
[7] = MC4R antagonists, dose response, counter-screen for LGR2 antagonist project, cell-based, plate reader, cherry pick (AID 743444); format: functional;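 further: transfected HEK 293 cells stimulated with alpha-MSH peptide; potency of inhibitors of the alpha-MSH evoked signal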
Vero = test: host cell cytotoxicity of antiviral hits, dose response, cytotoxicity control for West Nile virus antiviral project, secondary assay (AID 1650); format: functional; conditions: Chlorocebus sabaeus
[8] = inhibitors of intracellular T. cruzi replication, confirmation, NIH3T3 host cells, beta-gal luminescence (AID 2044); format: functional, cell-based;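 further: intracellular parasites grown in NIH/3T3 mouse fibroblasts as host cells; luminescent beta-galactosidase reporter signal from transgenic T. cruzi replicating inside host cells; inhibitors lower the luminescence signal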
[9] = cytotoxicity toward NIH3T3 fibroblasts, dose response, counter-screen, cell-based, ATP luminescence, mouse fibroblasts (AID 2010); format: functional;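 further: cells exposed to compound for about 90 hours before reading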
BJ [10] = test: cytotoxicity toward BJ-TERT-LT-ST fibroblasts, dose response, cell-based, RAS-independent, luminescence (AID 1935); format: functional; conditions: Homo sapiens;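 further: BJ fibroblasts immortalized with TERT plus LT and ST oncogenes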
[11] = NIH-3T3 fibroblast cytotoxicity, dose response, cytotoxicity control, cell-based, fluorescence, Alamar Blue, secondary assay (AID 2327); format: functional;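 further: NIH-3T3 mouse fibroblasts cultured with fluconazole at 8 µg/mL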
[12] = non-specific cell cytotoxicity, dose response, cytotoxicity control for PAX8 inhibitor project, plate reader, dry powder samples (AID 743021); format: functional, cell-based
[13] = Luminescence Cell-Based Dose Confirmation HTS to Identify Inhibitors of Platelet Dense Granule Release. [Related pubchem assays: 1663 (Primary HTS), 1678 (Summary of Project)]; format: functional
BJ [14] = test: cytotoxicity toward BJ-TERT fibroblasts, dose response, cell-based, RAS-independent, luminescence (AID 1933); format: functional; conditions: Homo sapiens
HEK293 [15] = test: optical interference in Abeta FP readout, dose response, artefact control for IDE activator project, biochemical, fluorescence polarization (AID 588442); format: functional, cell-based; conditions: Homo sapiens
[16] = C. albicans growth with fluconazole, confirmation, fluorescence, retest (AID 2467); format: functional, cell-based
HEK293 [17] = test: HEK cell cytotoxicity by LDH release, dose response, cytotoxicity control for IDE activator project, fluorescence, HEK cells (AID 588440); format: functional, cell-based; conditions: Homo sapiens;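 further: cytotoxicity by LDH release measuring loss of membrane integrity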
[18] = HepG2 cell cytotoxicity, dose response, cytotoxicity control for non-replicating M. tuberculosis project (AID 489018); format: functional; conditions: Mycobacterium tuberculosis
[19] = molecular target: Luciferin 4-monooxygenase (Photinus pyralis, UniProt P08659); test: firefly luciferase enzyme inhibitors, dose response, biochemical, luminescence (AID 1891)
Luciferin 4-monooxygenase, sequence (P08659 whole entry): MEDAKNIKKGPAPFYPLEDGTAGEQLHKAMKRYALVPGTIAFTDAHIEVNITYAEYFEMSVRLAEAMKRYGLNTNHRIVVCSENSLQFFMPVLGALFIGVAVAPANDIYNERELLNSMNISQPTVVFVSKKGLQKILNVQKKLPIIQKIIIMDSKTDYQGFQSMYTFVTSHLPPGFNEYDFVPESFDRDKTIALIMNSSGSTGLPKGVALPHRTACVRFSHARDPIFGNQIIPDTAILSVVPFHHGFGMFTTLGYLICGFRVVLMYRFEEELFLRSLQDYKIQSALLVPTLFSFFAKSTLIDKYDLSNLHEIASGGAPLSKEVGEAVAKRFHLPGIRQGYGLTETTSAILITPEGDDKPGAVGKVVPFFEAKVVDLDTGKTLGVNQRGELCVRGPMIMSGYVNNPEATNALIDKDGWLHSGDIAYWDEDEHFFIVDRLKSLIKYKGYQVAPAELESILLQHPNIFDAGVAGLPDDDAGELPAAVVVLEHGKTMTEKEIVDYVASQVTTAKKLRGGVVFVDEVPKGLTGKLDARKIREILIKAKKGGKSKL

Paired box protein Pax-8 = Paired box protein Pax-8 (Homo sapiens, UniProt Q06710); test: inhibitors of PAX8-driven TPO luciferase reporter, dose response, RMG-I cells, cherry-pick (AID 687027); format: functional, cell-based;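 further: luciferase reporter driven by Pax8 target thyroperoxidase promoter measured by SteadyGlo luminescence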
Paired box protein Pax-8, sequence (Q06710 whole entry): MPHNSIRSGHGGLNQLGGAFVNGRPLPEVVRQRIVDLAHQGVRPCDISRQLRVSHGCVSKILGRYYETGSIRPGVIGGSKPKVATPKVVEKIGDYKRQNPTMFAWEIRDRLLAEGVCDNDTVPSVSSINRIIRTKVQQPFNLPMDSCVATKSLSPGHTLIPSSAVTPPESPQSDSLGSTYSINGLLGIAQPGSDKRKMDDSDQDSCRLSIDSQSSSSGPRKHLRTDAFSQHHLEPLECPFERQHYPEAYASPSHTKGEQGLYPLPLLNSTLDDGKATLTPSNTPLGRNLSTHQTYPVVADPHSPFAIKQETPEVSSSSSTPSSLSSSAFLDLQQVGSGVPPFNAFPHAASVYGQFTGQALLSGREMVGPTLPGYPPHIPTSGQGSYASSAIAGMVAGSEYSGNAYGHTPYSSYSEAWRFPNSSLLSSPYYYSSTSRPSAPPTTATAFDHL

[20] = THP-1 cell cytotoxicity, dose response, cytotoxicity control for non-replicating M. tuberculosis project (AID 489025); format: functional
Insulin-degrading enzyme [21] = molecular target: T1, Insulin-degrading enzyme (Homo sapiens, UniProt P14735); test: activators of recombinant IDE enzyme, dose response, counter-screen for IDE activator project, biochemical, fluorescence polarization (AID 588681)
T1 sequence (P14735 whole entry): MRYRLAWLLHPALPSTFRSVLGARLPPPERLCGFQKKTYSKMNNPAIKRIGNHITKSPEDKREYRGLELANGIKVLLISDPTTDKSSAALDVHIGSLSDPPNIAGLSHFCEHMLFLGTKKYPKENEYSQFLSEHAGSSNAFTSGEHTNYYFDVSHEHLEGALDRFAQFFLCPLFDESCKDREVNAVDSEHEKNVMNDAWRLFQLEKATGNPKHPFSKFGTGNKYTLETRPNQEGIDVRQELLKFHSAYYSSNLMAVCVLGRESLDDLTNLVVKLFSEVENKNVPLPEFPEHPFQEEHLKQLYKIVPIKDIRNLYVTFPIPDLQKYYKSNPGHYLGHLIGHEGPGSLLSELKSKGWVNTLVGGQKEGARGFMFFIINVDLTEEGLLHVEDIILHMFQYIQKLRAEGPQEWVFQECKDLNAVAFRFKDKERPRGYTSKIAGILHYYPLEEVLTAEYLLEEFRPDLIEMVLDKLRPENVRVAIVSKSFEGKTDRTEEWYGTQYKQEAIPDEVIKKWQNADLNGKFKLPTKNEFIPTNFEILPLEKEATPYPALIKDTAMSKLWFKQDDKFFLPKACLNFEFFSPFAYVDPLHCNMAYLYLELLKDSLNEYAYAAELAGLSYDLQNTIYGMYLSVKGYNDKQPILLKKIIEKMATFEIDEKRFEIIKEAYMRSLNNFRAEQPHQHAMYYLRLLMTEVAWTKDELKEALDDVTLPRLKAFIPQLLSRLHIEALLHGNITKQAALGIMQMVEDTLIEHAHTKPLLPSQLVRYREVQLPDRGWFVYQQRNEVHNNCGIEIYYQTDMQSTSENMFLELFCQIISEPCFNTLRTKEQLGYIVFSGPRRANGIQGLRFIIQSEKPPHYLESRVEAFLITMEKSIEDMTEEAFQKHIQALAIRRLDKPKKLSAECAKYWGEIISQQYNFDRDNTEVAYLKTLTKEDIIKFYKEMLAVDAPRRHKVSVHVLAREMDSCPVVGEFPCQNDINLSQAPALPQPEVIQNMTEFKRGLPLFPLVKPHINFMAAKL

BJ [22] = test: cells; format: functional, cell-based; conditions: Homo sapiens
[23] = molecular target: Heat shock protein HSP 90-alpha (Homo sapiens, UniProt P07900); format: functional, organism-based
[24] = Vero E6 cell cytotoxicity, dose response, cytotoxicity control for non-replicating M. tuberculosis project, secondary assay (AID 492998); format: functional, VeroE6; conditions: Vero C1008
Insulin-degrading enzyme [25] = molecular target: T1, Insulin-degrading enzyme; test: activators of endogenous IDE in HEK cells, dose response, cell-based, fluorescence polarization (AID 588439); format: functional
[26] = cytotoxicity toward DRD oncogenic fibroblasts, dose response, cell-based, non-viral oncogenic, luminescence (AID 1934); format: functional; conditions: Homo sapiens
[27] = molecular target: T2, Fructose-bisphosphate aldolase (Mycobacterium tuberculosis, UniProt P9WQA3); test: Fluorescence-based biochemical high throughput dose response assay for inhibitors of the fructose-bisphosphate aldolase (FBA) of M. tuberculosis.; format: functional
T2 sequence (P9WQA3 whole entry): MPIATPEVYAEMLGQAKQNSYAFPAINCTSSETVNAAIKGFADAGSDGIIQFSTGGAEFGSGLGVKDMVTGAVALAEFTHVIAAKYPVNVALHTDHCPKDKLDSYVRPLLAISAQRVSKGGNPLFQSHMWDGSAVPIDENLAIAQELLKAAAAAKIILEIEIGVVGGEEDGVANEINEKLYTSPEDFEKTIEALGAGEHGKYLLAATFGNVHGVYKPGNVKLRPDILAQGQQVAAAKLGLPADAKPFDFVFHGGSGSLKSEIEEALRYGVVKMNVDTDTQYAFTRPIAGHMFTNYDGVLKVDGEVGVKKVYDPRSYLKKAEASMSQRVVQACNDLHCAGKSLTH

[28] = THP-1 cell cytotoxicity, dose response, cytotoxicity control for Vif-APOBEC3G degradation inhibitor project, THP-1 cells (AID 1117359); format: functional; conditions: Human immunodeficiency virus 1, THP-1

**Q.** For `C[C@@H]1CN([C@H](C)CO)C(=O)c2ccccc2-c2ccccc2CO[C@@H]1CN(C)Cc1ccccc1C(F)(F)F`, which AC50 [1] is on record?
**A.** 15.7 µM (active)

**Q.** What about the AC50 [2] of the same compound?
**A.** 2.79 µM (active)

**Q.** What does the source list for `N#C[C@@H]1[C@H](c2ccc(C#Cc3ccccc3F)cc2)[C@H](CO)N1C(=O)C1CCCCC1`?
**A.** AC50 [3]: 2.67 µM (active); AC50 [4]: 17.6 µM (active); AC50 [5]: 20 µM (active); AC50 [6]: 14.3 µM (active); AC50 [7]: 27.5 µM (active)

**Q.** With `CC(C)N1C(=O)/C(=C/c2nc3ccccc3c(=O)n2-c2ccccc2)c2ccccc21` as the compound, how does the CC50 (Vero) read?
**A.** 27.3 µM (active)

**Q.** What about the EC50 [8] of the same compound?
**A.** 0.997 µM (active)

**Q.** With `COc1ccc(CN2CCCC(N3CCN(c4cccc(Cl)c4)CC3)C2)cc1OC` (stereo not given) as the compound, how does the EC50 (cells) read?
**A.** 0.038 µM (active)

**Q.** What about the EC50 [9] of the same compound?
**A.** > 60 µM (not active)

**Q.** And the EC50 [8]?
**A.** < 0.1 µM (active)

**Q.** For `CC(C)CC#Cc1ccc([C@H]2[C@H](CO)N3CCCCN(S(=O)(=O)Cc4ccccc4)C[C@@H]23)cc1`, which AC50 [1] is on record?
**A.** 9.45 µM (active)

**Q.** What about the AC50 [2] of the same compound?
**A.** 4.8 µM (active)

**Q.** Which results are given for `COc1ccc(NC(=O)c2cc([N+](=O)[O-])ccc2O)cc1`?
**A.** EC50 (BJ [10]): > 150 µM (inconclusive); EC50 [11]: 11.6 µM (active); AC50 [3]: 9.22 µM (active); AC50 [12]: 12.4 µM (active); EC50 [13]: 2.15 µM (active); EC50 (BJ [14]): 9.48 µM (active); EC50 (HEK293 [15]): > 54.7 µM (inactive); EC50 [16]: 1.27 µM (active); IC50 (HEK293 [17]): > 89.1 µM (inactive); AC50 [4]: 11.9 µM (active); CC50 [18]: > 20 µM (active); AC50 [5]: 0.784 µM (active); EC50 [19]: 0.129 µM (active); AC50 (Paired box protein Pax-8): 5.39 µM (active); CC50 [20]: 26.5 µM (active); AC50 [6]: 6.28 µM (active); EC50 (Insulin-degrading enzyme [21]): > 54.7 µM (inactive); AC50 [7]: 0.739 µM (active); EC50 (BJ [22]): 5.17 µM (active); AC50 [23]: 3.37 µM (active); CC50 [24]: > 20 µM (active); EC50 (Insulin-degrading enzyme [25]): > 54.7 µM (inactive); EC50 [26]: 6.2 µM (active)

**Q.** For `COc1ccc(-c2cc(-c3ccccc3)c(C#N)c(SCC(=O)O)n2)cc1`, which IC50 [27] is on record?
**A.** 1.35 µM (active)

**Q.** Which CC50 [28] does the source give for `CNc1ccc(Br)cc(C(=O)/C=C/c2cccc(OC)c2OC)c1=O` here?
**A.** > 40 µM (active)

**Q.** With `Cc1cc2c(SCc3ccccc3Cl)nc(N)nc2nc1C` as the compound, how does the IC50 [27] read?
**A.** 0.833 µM (active)
